Data taken from patent publication US20250213558A1, “T-TYPE CALCIUM CHANNEL MODULATORS COMPRISING A PIPERAZINE OR 1,4-DIAZEPANE CORE AND METHODS OF USE THEREOF” (Praxis Precision Medicines, Inc., priority 2022, published 2025).
pIC50: −log10 of the molar value. Read-outs that look alike come from different tables or passages of the source.

Biological target: T1, Human Cav3.1 calcium channel (Homo sapiens, UniProt O43497)
T1 construct: expressed in transfected cells; host or cells: HEK-293 natClytin/TASK1+Cav3.1 cell line
Assay: Human Cav3.1 calcium channel patch clamp assay (SyncroPatch 384PE; single point and IC50, voltage dependent block)
Type: cell-based
Conditions: for % Inhibition (Single Point Data): Testing Conc 1.25, patch clamp
Outline: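 Automated whole-cell patch clamp at room temperature, cells held at −120 mV; 100 ms step to −20 mV (resting block), then 1600 ms at −65 mV and a second −20 mV step (voltage-dependent block), every 15 s. Peak currents averaged over last 3 sweeps; % inhibition relative to nickel-sensitive current.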

[1] = HEK-293 natClytin/TASK1+Cav3.1 cell line
[2] = voltage dependent block (VDB), HEK-293 natClytin/TASK1+Cav3.1 cell line, read-out: Cav3.1 IC50

T1 sequence (O43497 whole entry): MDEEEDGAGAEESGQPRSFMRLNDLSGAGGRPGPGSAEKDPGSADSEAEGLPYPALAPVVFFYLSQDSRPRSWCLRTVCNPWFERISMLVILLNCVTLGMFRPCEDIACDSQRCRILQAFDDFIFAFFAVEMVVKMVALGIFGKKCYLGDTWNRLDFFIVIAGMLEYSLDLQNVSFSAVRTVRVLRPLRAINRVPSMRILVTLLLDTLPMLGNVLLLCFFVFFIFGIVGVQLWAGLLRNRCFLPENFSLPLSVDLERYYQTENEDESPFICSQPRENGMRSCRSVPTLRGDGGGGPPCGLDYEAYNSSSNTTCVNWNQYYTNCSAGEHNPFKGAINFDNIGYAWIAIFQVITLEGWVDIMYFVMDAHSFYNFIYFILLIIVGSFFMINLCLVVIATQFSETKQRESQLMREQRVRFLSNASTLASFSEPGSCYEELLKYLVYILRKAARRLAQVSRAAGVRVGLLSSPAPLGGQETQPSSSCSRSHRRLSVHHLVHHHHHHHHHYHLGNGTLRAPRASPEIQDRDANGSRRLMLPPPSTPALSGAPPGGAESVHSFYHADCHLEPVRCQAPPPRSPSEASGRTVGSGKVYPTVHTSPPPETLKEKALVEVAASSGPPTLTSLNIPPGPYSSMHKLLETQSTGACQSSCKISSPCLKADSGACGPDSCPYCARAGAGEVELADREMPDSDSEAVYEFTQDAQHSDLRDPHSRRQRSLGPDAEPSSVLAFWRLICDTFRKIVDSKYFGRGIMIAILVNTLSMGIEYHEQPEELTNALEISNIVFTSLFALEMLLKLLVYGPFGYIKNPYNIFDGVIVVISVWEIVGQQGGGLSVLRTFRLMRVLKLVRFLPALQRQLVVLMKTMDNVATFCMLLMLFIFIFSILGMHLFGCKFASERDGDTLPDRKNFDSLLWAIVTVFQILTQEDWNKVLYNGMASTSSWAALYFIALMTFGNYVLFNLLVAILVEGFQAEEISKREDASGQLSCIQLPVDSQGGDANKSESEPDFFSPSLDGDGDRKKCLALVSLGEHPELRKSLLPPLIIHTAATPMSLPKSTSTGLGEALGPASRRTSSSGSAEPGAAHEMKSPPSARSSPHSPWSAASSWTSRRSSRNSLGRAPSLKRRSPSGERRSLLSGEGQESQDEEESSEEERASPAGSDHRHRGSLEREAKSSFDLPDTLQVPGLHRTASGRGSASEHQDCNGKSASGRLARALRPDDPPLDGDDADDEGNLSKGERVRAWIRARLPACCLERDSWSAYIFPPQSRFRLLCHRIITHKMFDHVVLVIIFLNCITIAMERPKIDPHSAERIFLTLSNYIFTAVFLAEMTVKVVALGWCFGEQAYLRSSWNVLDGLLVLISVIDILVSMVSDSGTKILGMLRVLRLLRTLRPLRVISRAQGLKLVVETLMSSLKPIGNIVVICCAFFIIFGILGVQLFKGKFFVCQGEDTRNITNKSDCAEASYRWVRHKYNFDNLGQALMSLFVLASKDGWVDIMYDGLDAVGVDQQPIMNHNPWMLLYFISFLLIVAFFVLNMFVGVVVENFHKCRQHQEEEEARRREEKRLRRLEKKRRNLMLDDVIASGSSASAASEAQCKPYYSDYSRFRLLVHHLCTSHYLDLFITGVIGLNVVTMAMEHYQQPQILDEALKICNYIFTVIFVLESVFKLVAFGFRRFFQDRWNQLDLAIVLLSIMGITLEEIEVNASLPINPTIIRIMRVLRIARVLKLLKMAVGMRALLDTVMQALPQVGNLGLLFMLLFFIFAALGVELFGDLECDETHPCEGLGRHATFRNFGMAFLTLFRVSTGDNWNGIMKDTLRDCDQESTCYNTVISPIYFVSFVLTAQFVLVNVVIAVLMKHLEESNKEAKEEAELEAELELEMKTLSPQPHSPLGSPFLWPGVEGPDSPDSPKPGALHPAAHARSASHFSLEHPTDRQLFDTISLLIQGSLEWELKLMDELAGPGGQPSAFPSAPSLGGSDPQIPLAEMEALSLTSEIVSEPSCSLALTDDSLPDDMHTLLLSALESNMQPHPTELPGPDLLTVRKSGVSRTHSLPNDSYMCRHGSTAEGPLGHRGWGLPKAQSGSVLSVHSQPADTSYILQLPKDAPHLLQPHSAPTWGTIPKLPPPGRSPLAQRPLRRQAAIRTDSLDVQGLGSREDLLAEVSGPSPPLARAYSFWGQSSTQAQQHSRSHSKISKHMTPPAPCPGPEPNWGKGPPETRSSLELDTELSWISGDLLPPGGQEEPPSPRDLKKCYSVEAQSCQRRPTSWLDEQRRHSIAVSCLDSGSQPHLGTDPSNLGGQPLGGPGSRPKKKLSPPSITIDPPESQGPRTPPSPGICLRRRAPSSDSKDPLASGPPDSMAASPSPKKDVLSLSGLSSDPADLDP

Row | Structure (SMILES) | % Inhibition (Single Point Data) [1] [%] | pIC50 [2] | pIC50
1 | COc1ccc(F)cc1NC(=O)CN1CC2CC(C1)N2CC(=O)NC(C)(C)C [Compound 218] | 36.544 | 5.54 | 
2 | CC(C)(C)NC(=O)CN1C2CC1CN(CC(=O)Nc1cc(F)ccc1C#N)C2 [Compound 219] | 35.823 |  | 
3 | CC(C)(C)NC(=O)CN1C2CC1CN(CC(=O)Nc1cc(F)cc(C#N)c1)C2 [Compound 220] | 80.621 | 6.17 | 
4 | Cc1ccc(Cl)cc1NC(=O)CN1CC2CC(C1)N2CC(=O)NC(C)(C)C [Compound 221] | 48.175 | 6.05 | 
5 | COc1ccc(F)c(NC(=O)CN2CC3CC(C2)N3CC(=O)NC(C)(C)C)c1 [Compound 222] | 52.3 | 5.96 | 
6 | O=C(CN1CC2CC1CN2CC(=O)NC1(C(F)(F)F)CC1)Nc1cc(F)cc(Cl)c1 (centres unmarked) [Compound 223] | 75.83 | 5.90 | 
7 | CC(C)(NC(=O)CN1C2CC1CN(CC(=O)Nc1cc(F)cc(OC(F)F)c1)C2)C(F)(F)F [Compound 224] | 83.389 | 6.80 | 
8 | O=C(CN1CC2CC(C1)N2CC(F)(F)C1CCCCC1)Nc1cc(F)cc(Cl)c1 [Compound 226] | 39.507 |  | 
9 | O=C(CN1CC2CC1CN2CCNC(=O)C1(C(F)(F)F)CC1)Nc1cc(F)cc(Cl)c1 (centres unmarked) [Compound 227] | 78.995 | 6.80 | 
10 | O=C(CN1CC2CC1CN2CCNC(=O)C1(C(F)(F)F)CCC1)Nc1cc(F)cc(Cl)c1 (centres unmarked) [Compound 228] | 87.61 | 6.62 | 
11 | O=C(CN1CC2CC(C1)N2CCNC(=O)C1(C(F)(F)F)CCC1)Nc1cc(F)cc(Cl)c1 [Compound 229] | 89.382 |  | 
12 | CC(C)(C(=O)NCCN1C2CC1CN(CC(=O)Nc1cc(F)cc(Cl)c1)C2)C(F)(F)F [Compound 230] | 96.987 |  | 
13 | CC(C)(C)NC(=O)CN1CC2CC1CN2CC(=O)Nc1cc(F)cc(OC(F)F)c1 (centres unmarked) [Compound 231] | 95.51 | 7.05 | 
14 | O=C(CN1CC2CC(C1)N2CCNC(=O)C1(C(F)(F)F)CC1)Nc1cc(F)cc(Cl)c1 [Compound 232] | 98.914 | 6.86 | 
15 | CC(C)(C)NC(=O)CN1CC2CC1CN2CC(=O)Nc1ccc(F)c(Cl)c1 (centres unmarked) [Compound 233] | 83.643 | 6.64 | 
16 | CC1(NC(=O)CN2CC3CC2CN3CC(=O)Nc2ccc(F)c(Cl)c2)CC1 (centres unmarked) [Compound 234] | 51.647 | 5.90 | 
17 | CC(C)(NC(=O)CN1CC2CC1CN2CC(=O)Nc1ccc(F)c(Cl)c1)C(F)(F)F (centres unmarked) [Compound 235] | 92.093 | 6.65 | 
18 | COc1cccc(NC(=O)CN2CC3CC2CN3CCNC(=O)C2(C(F)(F)F)CCC2)c1 (centres unmarked) [Compound 236] | 65.449 | 6.27 | 
19 | COc1cccc(NC(=O)CN2CC3CC2CN3CCNC(=O)C2(C(F)(F)F)CC2)c1 (centres unmarked) [Compound 237] | 35.987 |  | 
20 | O=C(CN1CC2CC1CN2CC(=O)NC1(C(F)(F)F)CC1)Nc1ccc(F)c(Cl)c1 (centres unmarked) [Compound 238] | 79.048 |  | 
21 | CC1(NC(=O)CN2C3CC2CN(CC(=O)Nc2ccc(F)c(Cl)c2)C3)CC1 [Compound 239] | 58.273 | 6.23 | 
22 | O=C(CN1CC2CC(C1)N2CC(=O)NC1(C(F)(F)F)CC1)Nc1ccc(F)c(Cl)c1 [Compound 240] | 80.113 | 6.48 | 

Row | Structure (SMILES) | % Inhibition (Single Point Data) [1] [%] | pIC50 [2] | pIC50
23 | CC(C)(NC(=O)CN1C2CC1CN(CC(=O)Nc1ccc(F)c(Cl)c1)C2)C(F)(F)F [Compound 241] | 101.68 |  | 
24 | CC(C)(C)NC(=O)CN1C2CC1CN(CC(=O)Nc1ccc(F)c(OC(F)(F)F)c1)C2 [Compound 242] | 93.661 | 6.75 | 
25 | O=C(CN1CC2CC(C1)N2CC(=O)NC1(C(F)(F)F)CC1)Nc1ccc(F)c(OC(F)(F)F)c1 [Compound 243] | 93.979 | 6.86 | 
26 | CC(C)(C)NC(=O)CN1C2CC1CN(CC(=O)Nc1ccc(F)c(OC(F)F)c1)C2 [Compound 244] | 90.346 | 6.75 | 
27 | O=C(CN1CC2CC(C1)N2CC(=O)NC1(C(F)(F)F)CC1)Nc1ccc(F)c(OC(F)F)c1 [Compound 245] | 96.987 |  | 7.01
28 | CC(C)(C)NC(=O)CN1C[C@H]2C[C@@H]1CN2CC(=O)Nc1ccc(F)c(OC(F)F)c1 [Compound 246] | 49.246 | 5.97 | 
29 | CC(C)(C)NC(=O)CN1C[C@@H]2C[C@H]1CN2CC(=O)Nc1ccc(F)c(OC(F)F)c1 [Compound 247] | 97.344 |  | 
30 | COc1cc(NC(=O)CN2CC3CC(C2)N3CC(=O)NC(C)(C)C)ccc1F [Compound 248] | 64.348 | 6.28 | 
31 | CC(C)(C)NC(=O)CN1C2CC1CN(CC(=O)Nc1ccc(F)c(C(F)(F)F)c1)C2 [Compound 249] | 99.326 | 6.00 | 
32 | CC(C)(C)NC(=O)CN1C2CC1CN(CC(=O)Nc1ccc(F)c(C(F)F)c1)C2 [Compound 250] | 86.981 | 6.42 | 
33 | O=C(CN1CC2CC(C1)N2CC(=O)NC1(C(F)(F)F)CC1)Nc1ccc(F)c(C(F)(F)F)c1 [Compound 251] | 80.59 |  | 
34 | O=C(CN1CC2CC(C1)N2CC(=O)NC1(C(F)(F)F)CC1)Nc1ccc(F)c(C(F)F)c1 [Compound 252] | 72.234 | 6.24 | 
35 | CC(C)(C)NC(=O)CN1C[C@@H]2C[C@H]1CN2CC(=O)Nc1cccc(OC(F)F)c1 [Compound 253] | 38.026 | 5.88 | 
36 | CC(C(=O)NC(C)(C)C)N1C2CC1CN(CC(=O)Nc1ccc(F)c(OC(F)F)c1)C2 (centres unmarked) [Compound 254] | 93.503 | 6.94 | 
37 | CC(C(=O)Nc1ccc(F)c(OC(F)F)c1)N1CC2CC(C1)N2CC(=O)NC1(C(F)(F)F)CC1 (centres unmarked) [Compound 255] | 66.406 | 6.37 | 
38 | CC(C(=O)Nc1ccc(F)c(OC(F)F)c1)N1CC2CC(C1)N2CC(=O)NC(C)(C)C (centres unmarked) [Compound 256] | 100.73 |  | 
39 | COc1cc(NC(=O)CN2CC3CC(C2)N3CC(=O)NC2(C(F)(F)F)CC2)ccc1F [Compound 257] | 89.324 | 6.63 | 
40 | CC(C)(C)NC(=O)CN1C2CC1CN(CC(=O)NC13CC4CC(CC(C4)C1)C3)C2 [Compound 258] | 91.927 | 6.39 | 
41 | CC(C)(C)NC(=O)CN1C[C@@H]2C[C@H]1CN2CC(=O)NC12CC3CC(CC(C3)C1)C2 [Compound 259] | 91.279 |  | 
42 | CC(C(=O)NC(C)(C)C)N1C2CC1CN(CC(=O)Nc1ccc(F)c(Cl)c1)C2 (centres unmarked) [Compound 260] | 80.656 | 6.56 | 
43 | CC(C)(C)NC(=O)CN1C[C@H]2C[C@@H]1CN2CC(=O)NC12CC3CC(CC(C3)C1)C2 [Compound 261] | 70.332 | 6.29 | 
44 | CC(C(=O)Nc1cc(F)cc(Cl)c1)N1C[C@@H]2C[C@H]1CN2CC(=O)NC1(C(F)(F)F)CC1 (some centres unmarked) [Compound 262] | 87.794 | 6.67 | 
